Results: patent US20060069132A1, “Azolecarboxamide herbicides” (priority 2004, published 2006)

How the values were obtained:
large crabgrass = experiment: Test C pre-/postemergence herbicide test; assay type: in vivo, Digitaria sanguinalis; details: preemergence
Outline: (§1)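 Visual ratings on a 0–100 scale (100 = complete control) made versus untreated controls after 12 to 14 greenhouse days. Test chemicals, formulated in surfactant-containing non-phytotoxic solvent, applied preemergence to planted seeds or postemergence to 1- to 4-leaf plants (2 to 18 cm).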

common ragweed = experiment: Test C pre-/postemergence herbicide test; assay type: in vivo, Ambrosia elatior; design: key to Plant response rating, Ragweed: 0 = no effect, 100 = complete control; details: preemergence
Outline: as §1

ducksalad = experiment: Test C flooded paddy test; assay type: in vivo, Heteranthera limosa
yellow nutsedge = experiment: Test C pre-/postemergence herbicide test; assay type: in vivo, Cyperus esculentus; details: preemergence
Outline: as §1

eastern black nightshade = experiment: Test C pre-/postemergence herbicide test; assay type: in vivo, Solanum ptycanthum; details: preemergence
Outline: as §1

cocklebur = experiment: Test C pre-/postemergence herbicide test; assay type: in vivo, Xanthium strumarium; details: for Plant response rating, Cocklebur: preemergence
Outline: as §1

corn = experiment: Test C pre-/postemergence herbicide test; assay type: in vivo, Zea mays; details: preemergence
Outline: as §1

velvetleaf = experiment: Test C pre-/postemergence herbicide test; assay type: in vivo, Abutilon theophrasti; details: preemergence
Outline: as §1

barnyardgrass = experiment: Test C flooded paddy test; assay type: in vivo, Echinochloa crus-galli
Outline: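 Weeds and wheat were sprayed after emergence, at a height of 2 to 18 cm (1–4 leaves), and paddy barnyardgrass was flooded and treated at two leaves. Assessment took place 12–14 days later in the greenhouse on a 0-to-100 visual control scale. A dash means no result was obtained.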

rice = experiment: Test C flooded paddy test; assay type: in vivo, Oryza sativa
Outline: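 Injury scored visually against controls on a 0 (no effect) to 100 (complete control) scale, 12 to 14 days after treatment in greenhouse. Flooded paddy plants treated at 2-leaf stage; postemergence plants at 1- to 4-leaf stage, 2 to 18 cm tall.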

[1] = 125 g ai/ha, scale 0 (no effect) to 100 (complete control), visual, 12 to 14 days
[2] = 500 g ai/ha, scale 0 to 100 (0 no effect, 100 complete control), visual, 12 to 14 days
[3] = 125 g ai/ha, scale 0 to 100 (0 no effect, 100 complete control)
[4] = 250 g ai/ha, scale of 0 to 100, 0 is no effect, 100 is complete control
[5] = 500 g ai/ha, visual rating after 12 to 14 days, scale 0 to 100 (0 no effect, 100 complete control)

Compound: CCN1N=C(C(C)(C)C)CC1C(=O)Nc1cc(C(=O)N2CCCC2)ccc1F (racemic) [Compound 309]
- Plant response rating, Crabgrass, Large (large crabgrass; [1]): 80
- Plant response rating, Crabgrass, Large (large crabgrass; 250 g ai/ha, scale 0-100): 100
- Plant response rating, Crabgrass, Large (large crabgrass; [2]): 100
- Plant response rating, Ragweed (common ragweed; 62 g ai/ha, scale 0 to 100): 50
- Plant response rating, Ragweed (common ragweed; 250 g ai/ha, scale 0-100): 70
- Plant response rating, Ragweed (common ragweed; [2]): 100
- Ducksalad plant response rating (ducksalad; 62 g ai/ha, scale 0 to 100): 85
- Ducksalad plant response rating (ducksalad; [3]): 90
- Ducksalad plant response rating (ducksalad; [4]): 90
- Plant response rating, Ducksalad (ducksalad; [5]): 90
- Plant response rating, Nutsedge, Yellow (yellow nutsedge; 62 g ai/ha, scale 0 to 100): 5
- Plant response rating, Nutsedge, Yellow (yellow nutsedge; [1]): 30
- Plant response rating, Nutsedge, Yellow (yellow nutsedge; 250 g ai/ha, scale 0-100): 45
- Plant response rating, Nutsedge, Yellow (yellow nutsedge; [2]): 60
- Plant response rating, Nightshade (eastern black nightshade; 62 g ai/ha, scale 0 to 100): 70
- Plant response rating, Nightshade (eastern black nightshade; [1]): 80
- Plant response rating, Nightshade (eastern black nightshade; 250 g ai/ha, scale 0-100): 100
- Plant response rating, Nightshade (eastern black nightshade; [2]): 100
- Plant response rating, Cocklebur (cocklebur; 62 g ai/ha, scale 0 to 100): 0
- Plant response rating, Cocklebur (cocklebur; [1]): 10
- Plant response rating, Cocklebur (cocklebur; 250 g ai/ha, scale 0-100): 60
- Cocklebur plant response rating (cocklebur; Preemergence, 500 g ai/ha, scale 0 to 100, 0 no effect, 100 complete control): 60
- Plant response rating, Corn (corn; 62 g ai/ha, scale 0 to 100): 5
- Plant response rating, Corn (corn; [1]): 20
- Plant response rating, Corn (corn; 250 g ai/ha, scale 0-100): 40
- Plant response rating, Corn (corn; [2]): 60
- Plant response rating, Velvetleaf (velvetleaf; 62 g ai/ha, scale 0 to 100): 5
- Plant response rating, Velvetleaf (velvetleaf; 250 g ai/ha, scale 0-100): 75
- Plant response rating, Velvetleaf (velvetleaf; [2]): 100
- Barnyardgrass plant response rating (barnyardgrass; 62 g ai/ha, scale 0 to 100 (0 no effect, 100 complete control)): 50
- Barnyardgrass plant response rating (barnyardgrass; [3]): 60
- Barnyardgrass plant response rating (barnyardgrass; [4]): 85
- Plant response rating, Barnyardgrass (barnyardgrass; [5]): 90
- Rice plant response rating (rice; 62 g ai/ha, scale 0 to 100): 60
- Rice plant response rating (rice; [3]): 70
- Rice plant response rating (rice; [4]): 75
- Plant response rating, Rice (rice; [5]): 75
